In patent US11365207B2, “Sulfur-containing polycyclic-hydroxypyridone carboxamide analog against HIV” (priority 2018, dated 2022):
Counter-ions that a name gives are not always drawn. Like-named read-outs stand apart in the source and are kept apart here.

Columns and labels:
Type in all cases: cell-based
[1] = tested on: HIV-1IIIB; test: Inhibition experiment for cytopathic effect (CPE) of HIV-1IIIB, syncytia formation in C8166 cells; conditions: Human immunodeficiency virus 1, 72 h, HIV-1IIIB in C8166 cells, 3 days
Experimental: (§1) Human T lymphocytic series C8166 and HIV-1 experiment strain HIV-1IIIB are both from National Institutes of Health (NIH); cells are cultured in the RPMI-1640 complete culture medium containing 10% fetal bovine serum. HIV-1IIIB is prepared by using a conventional method, titration and calculation of TCID 50 of viruses are performed. Virus stock solution is subpackaged and stored at −70° C. Cells and viruses are cryopreserved and recovered according to conventional methods.
7. Inhibition Experiment for Cytopathic Effect (CPE) of HIV-1IIIB
8×10^5/ml C8166 cells were inoculated onto the 96-well cell culture plate containing 100 μl/well drug subjected to gradient multiple proportion dilution in an amount of 50 μl/well, and then 50 μl HIV-1IIIB was added to dilute the supernatant, 1300 TCID 50/well. 3 repetition wells were set. Meanwhile, normal cell control wells without drugs were set. TDF and dolutegravir were positive drug controls. Culture was performed for 3 days under the conditions of 37° C. and 5% CO2, and syncytia formation were counted under the inverted microscope (100×). EC50 (50% Effective Concentration) is the concentration of the drug when 50% of syncytia formation is inhibited.
(§2) According to experiment results, fitted curves are drawn using Origin2016, the 50% effective concentrations (EC50) of the samples inhibiting viruses, 50% cell growth inhibition concentrations (CC50) and TI (therapeutic index) value against HIV-1 activity are calculated based on Reed & Muench method, and the TI value is TI=CC50/EC50.
2. HIV-1 cytopathic cell inhibition rate (%)=(1−experiment well syncytia number/control well syncytia number)×100

[2] = tested on: HIV-1IIIB; test: Inhibition of replication in HIV-1IIIB acute infectious C8166 cells (p24 antigen capture ELISA); conditions: for EC50: Human immunodeficiency virus 1, 72 h, P24 antigen, HIV-1IIIB acute infectious C8166 cells, 3 days; for inhibitory effect on HIV-1 replication in vitro: statement in words
Experimental: as §1
5. Measurement of HIV-1 p24 Antigen with p24 Antigen Capture ELISA Method
The 1 μg/plate of anti-mouse IgG Fc antibody was paved at 4° C. for overnight; the plate was sealed with 5% skimmed milk powder 4° C. for overnight; 100 μl/well mouse anti-p24 monoclonal antibody was added at 37° C. for 1 h; 100 μl/well (1:100) diluted rabbit anti-p24 polyclonal antibody (homemade) was added for 1 h at 37° C.; 100 μl/well (1:20000) diluted goat anti-rabbit IgG HRP was added for 1 h at 37° C.; OPD substrate reaction solution was added. After 10 min, 2M sulfuric acid was added to stop the reaction. The OD value was determined by Elx800 ELISA, and the wavelength was measured as 490/630 nm. The inhibition rate and EC50 of the drug on the p24 antigen replication and expression of HIV-1, namely, the concentration of the drug inhibiting 50% HIV-1 p24 antigen were calculated, namely, the concentration of the drug inhibiting 50% HIV-1 p24 antigen expression was calculated.
8. Inhibition Effect of Samples on Replication in Experiment Strain HIV-1IIIB Acute Infectious C8166 Cells
4×10^5 cells/ml C8166 cells and HIV-1IIIB MOI (multiplicity of infection=0.04) are infected for 2 h at 37° C., the obtained mixture is washed three times with PBS to remove free virus ions, 100 μl of cells are inoculated onto the 96-well plate containing 100 μl of to-be-detected compounds having different dilutions and cultured for 3 days under the conditions of 37° C. and 5% CO2. The cultural supernatant is centrifuged and then collected, and finally lysed and inactivated with 0.5% Triton X-100. The inhibition effect of the drug on HIV-1 replication is detected by using the p24 antigen capture ELISA method.
as §2
3. HIV-1 p24 antigen expression inhibition rate (%)=(1−experiment well OD value/control well OD value)×100

[3] = Toxicity test of C8166 cells (MTT colorimetric method); conditions: human
Experimental: as §1
6. Toxicity Test of C8166 Cells
100 μl of 4×10^5 ml C8166 was mixed with different to-be-detected drug solutions, and 3 repetition wells were set. Meanwhile, control wells were set. Culture was performed for 3 days under the conditions of 37° C. and 5% CO2. Cytotoxicity was detected with MTT colorimetric method. The OD value was measured with EL ×800 ELIASA, the wavelength was measured as 570/630 nm. The CC50 value was calculated (50% cytotoxic concentration), namely, the concentration of the drug when toxicity was generated for 50% normal T lymphocytic series C8166.
as §2
1. Cell growth survival rate (%)=experiment well OD value/control well OD value×100

[4] = C8166 cells (T lymphocytic cell line), C8166 cells, MTT, 3 days, read-out: CC50

SMILES | EC50 ([1]; values given in pM) | EC50 ([2]; values given in pM) | CC50 at 3 days [3, 4] | other results
C[C@H]1CSC2Cn3cc(C(=O)NCc4ccc(F)cc4F)c(=O)c(O)c3C(=O)N21 (stereo partly shown) [Compound 2] | 15.7 ± 2.61 pM | 18.1 ± 2.86 pM | 11330 ± 110 nM | inhibitory effect on HIV-1 replication in vitro [2]: extremely strong inhibition effects; inhibitory effect on HIV-1 replication in vitro ([2]; listed as compound 2): strong inhibitory effect
CC[C@H]1CSC2Cn3cc(C(=O)NCc4ccc(F)cc4F)c(=O)c(O)c3C(=O)N21 (stereo partly shown) [Compound 4] | 28.9 ± 5.11 pM | 35.1 ± 6.02 pM | 18600 ± 350 nM | 
CC(C)C1CSC2Cn3cc(C(=O)NCc4ccc(F)cc4F)c(=O)c(O)c3C(=O)N21 (stereo not shown) [Compound 5] | 162 ± 18.1 pM | 188 ± 22.8 pM | 16100 ± 300 nM | 
O=C(NCc1ccc(F)cc1F)c1cn2c(c(O)c1=O)C(=O)N1C(C2)SC[C@@H]1c1ccccc1 (stereo partly shown) [Compound 10] |  |  | 45160 ± 410 nM | EC50 ([1]; values in nM): 3820 ± 510 pM; EC50 ([2]; values in nM): 4160 ± 580 pM
O=C(NCc1ccc(F)cc1F)c1cn2c(c(O)c1=O)C(=O)N1C(C2)SC[C@@H]1Cc1ccccc1 (stereo partly shown) [Compound 12] | 526 ± 77.1 pM | 589 ± 86.1 pM | 28600 ± 320 nM | 
CC(C)C[C@H]1CSC2Cn3cc(C(=O)NCc4ccc(F)cc4F)c(=O)c(O)c3C(=O)N21 (stereo partly shown) [Compound 20] | 125 ± 17 pM | 148 ± 20.1 pM | 18300 ± 190 nM | 
O=C(NCc1c(F)cc(F)cc1F)c1cn2c(c(O)c1=O)C(=O)N1C(C2)S[C@@H]2CC[C@H]1C2 (stereo partly shown) [Compound 34] | 35.9 ± 6.11 pM | 38.1 ± 6.52 pM |  | inhibitory effect on HIV-1 replication in vitro [2]: extremely strong inhibition effects; inhibitory effect on HIV-1 replication in vitro ([2]; listed as compound 34): strong inhibitory effect; CC50 at 3 days [3]: 20700 ± 320 nM
C[C@H]1CSC2Cn3cc(C(=O)NCc4ccc(F)cc4)c(=O)c(O)c3C(=O)N21 (stereo partly shown) [Compound 66] | 75.3 ± 8.61 pM | 83.6 ± 10.9 pM | 20100 ± 210 nM | inhibitory effect on HIV-1 replication in vitro [2]: strong inhibitory effect
C[C@@H]1CCO[C@H]2Cn3cc(C(=O)NCc4ccc(F)cc4F)c(=O)c(O)c3C(=O)N12 [Dolutegravir, reference compound] |  |  | 26600 ± 2200 nM | EC50 ([1]; values in nM): 2130 ± 330 pM; EC50 ([2]; values in nM): 1050 ± 120 pM
CC(C)OC(=O)OCOP(=O)(CO[C@H](C)Cn1cnc2c(N)ncnc21)OCOC(=O)OC(C)C [TDF, tenofovir disoproxil fumarate, reference compound] |  |  | 157000 ± 21400 nM | EC50 ([1]; values in nM): 12100 ± 11300 pM; EC50 ([2]; values in nM): 8070 ± 4720 pM

Further lines, with some results ahead:

EC50 ([1]; values given in pM) | EC50 ([2]; values given in pM) | SMILES | CC50 at 3 days [3, 4] | other results
187 ± 31.1 pM | 201 ± 33.3 pM | C[C@@H]1CSC2Cn3cc(C(=O)NCc4ccc(F)cc4F)c(=O)c(O)c3C(=O)N21 (stereo partly shown) [Compound 1] | 20300 ± 210 nM | 
28.9 ± 5.11 pM | 35.1 ± 6.02 pM | CC[C@@H]1CSC2Cn3cc(C(=O)NCc4ccc(F)cc4F)c(=O)c(O)c3C(=O)N21 (stereo partly shown) [Compound 3] | 18600 ± 350 nM | 
182 ± 20.3 pM | 208 ± 36.1 pM | CC(C)[C@H]1CSC2Cn3cc(C(=O)NCc4ccc(F)cc4F)c(=O)c(O)c3C(=O)N21 (stereo partly shown) [Compound 6] | 22600 ± 480 nM | 
716 ± 103 pM | 781 ± 113 pM | CC(C)(C)[C@H]1CSC2Cn3cc(C(=O)NCc4ccc(F)cc4F)c(=O)c(O)c3C(=O)N21 (stereo partly shown) [Compound 8] | 26300 ± 350 nM | 
10.2 ± 2.11 pM | 11.1 ± 2.09 pM | C[C@@H]1CCSC2Cn3cc(C(=O)NCc4ccc(F)cc4F)c(=O)c(O)c3C(=O)N21 (stereo partly shown) [Compound 18] | 14000 ± 210 nM | inhibitory effect on HIV-1 replication in vitro [2]: extremely strong inhibition effects; inhibitory effect on HIV-1 replication in vitro ([2]; listed as compound 18): strong inhibitory effect
